According to patent publication US10266526B2, “Substituted 1,2,3-triazoles as SMYD inhibitors for treating cancer” (EPIZYME, INC., priority 2014, dated 2019):
Counter-ions that a name gives are not always drawn.

Assays:
SMYD3 [1] = molecular target: T1, SMYD3 (Homo sapiens (Human), UniProt Q9H7B4); assay: SMYD3 biochemical assay (SMYD3 enzyme assay on MEKK2 protein substrate, 3H-SAM scintillation proximity assay); settings: read-out: SMYD3 Biochem IC50
Procedure, shortened: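 Detection used scintillation proximity beads to capture ³H-methylated GST-MEKK2 after quench with 100 uM final cold SAM. The reaction was started by SAM/MEKK2 addition after a 30 min RT compound–enzyme preincubation. Enzyme was tag-free full-length human SMYD3 from E. coli, in buffer of 25 mM Tris-Cl pH 8.0, 1 mM TCEP, 0.005% BSG, 0.005% Tween 20.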

SMYD3 [2] = molecular target: T1, SMYD3; assay: SMYD3 cell assay (Trimethyl-MEKK2 In-Cell Western in 293T/17 cells transfected with MEKK2-flag and SMYD3); format: cell-based
Text: Trimethyl-MEKK2-in-Cell Western Assay
MEM/Glutamax medium, Optimem Reduced Serum medium, penicillin-streptomycin, 0.05% trypsin and 1×D-PBS were purchased from Life Technologies, Grand Island, N.Y., USA. PBS-10× was purchased from Ambion, Life Technologies, Grand Island, N.Y., USA. PBS with Tween 20 (PBST (10×)) was purchased from KPL, Gaithersburg, Md., USA. Tet System FBS-approved FBS US Source was purchased from Clontech, Mountain View, Calif., USA. Odyssey blocking buffer, 800CW goat anti-rabbit IgG (H+L) antibody, 680CW Goat anti-mouse IgG (H+L) and Licor Odyssey infrared scanner were purchased from Licor Biosciences, Lincoln, Nebr., USA. Tri-methyl-Lysine [A260]-MEKK2 antibody, MEKK2 and SMYD3 plasmids were made at Epizyme. Anti-flag monoclonal mouse antibody was purchased from Sigma, St. Louis, Mo., USA. Methanol was purchased from VWR, Franklin, Mass., USA. 10% Tween 20 was purchased from KPL, Inc., Gaithersburg, Md., USA. Fugene was purchased from Promega, Madison, Wis., USA. The Biotek ELx405 was purchased from BioTek, Winooski, Vt., USA. The multidrop combi was purchased from Thermo Scientific, Waltham, Mass., USA.
Cell Treatment, in Cell Western (ICW) for Detection of Trimethyl-Lysine-MEKK2 and MEKK2.
Plasmids were prepared for delivery to cells by first mixing 1350 μL Opti-MEM with Fugene (81 μL) in a sterile Eppendorf and incubated for five minutes at room temperature (RT). […] Entire volume of Opti-MEM/Fugene mixture was then added to a microfuge tube containing DNA plasmid, mixed and then incubated ×15 minutes at RT. […] Medium was then removed, and cells were washed once with PBS in the flask. Trypsin 0.05% (3 mL) was added and cells incubated for three minutes. Room temperature MEM+10% Tet system FBS was added and cells were mixed gently, and counted using the Vi-cell. Cells were seeded at 100,000 cells/mL in 50 μL MEM/10% Tet FBS/Pen/Strep to a 384 well black/clear poly-D-lysine coated plate containing test agent diluted in DMSO. The final top concentration of test compound was 40 μM. […] Plates were incubated ×30 minutes at RT in low-airflow area, followed by incubation at 37° C. under 5% CO2 for 24 hours. Medium was aspirated from all wells of assay plates prior to fixation and permeabilization with ice cold (−20° C.) methanol (90 μL/well) for ten minutes. Plates were rinsed with PBS three times on BioTek ELx405. PBS was removed with a final aspiration, and Odyssey blocking buffer (50 μL/well) was added to each well and incubated for one hour at RT. Primary antibody solution was prepared (anti-trimethyl-MEKK2 at 1:600 dilution plus mouse anti-flag antibody at 1:10,000 dilution in diluent (Odyssey Blocking buffer+0.1% Tween 20)) and 20 μL per well was dispensed using the Multidrop Combi. Assay plates were then sealed with foil, and incubated overnight at 4° C. Plates were washed five times with PBS-Tween (1×) on Biotek ELx405 and blotted on paper towel to remove excess reagent.
First, the ratio for each well was determined by:
Each plate included fourteen control wells of DMSO only treatment (Minimum Inhibition) as well as fourteen control wells for maximum inhibition (Background). The average of the ratio values for each control type was calculated and used to determine the percent inhibition for each test well in the plate. Reference compound was serially diluted two-fold in DMSO for a total of nine test concentrations, beginning at 40 μM. Percent inhibition was calculated (below).
Non-linear regression curves were generated to calculate the IC50 and dose-response relationship using triplicate wells per concentration of compound.

[3] = Table 3A, average of n = 1 to n = 50
[4] = Table 3A, average of n = 1 to n = 50, read-out: SMYD3 cell IC50

T1 sequence (Q9H7B4 whole entry): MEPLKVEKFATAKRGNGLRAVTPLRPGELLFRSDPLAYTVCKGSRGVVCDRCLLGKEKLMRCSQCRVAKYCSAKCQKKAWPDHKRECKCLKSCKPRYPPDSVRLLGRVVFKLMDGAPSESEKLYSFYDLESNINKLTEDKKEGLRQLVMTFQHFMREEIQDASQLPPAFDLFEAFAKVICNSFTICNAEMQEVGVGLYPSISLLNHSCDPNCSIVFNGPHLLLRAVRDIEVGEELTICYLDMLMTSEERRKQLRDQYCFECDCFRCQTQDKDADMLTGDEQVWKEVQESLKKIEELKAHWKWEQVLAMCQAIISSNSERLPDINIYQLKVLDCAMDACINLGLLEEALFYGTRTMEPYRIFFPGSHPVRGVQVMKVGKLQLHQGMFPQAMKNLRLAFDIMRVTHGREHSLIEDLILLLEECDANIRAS

IC50 (SMYD3 [2]; read-out: SMYD3 Cell IC50) [nM]	Structure (SMILES)	IC50 (SMYD3 [1]; [3]) [nM]	IC50 (SMYD3 [2]; [4]) [nM]	IC50 (SMYD3 [1]) [nM]
–	O=C1Cc2cc(C(=O)N[C@H]3C[C@H]4CC[C@@H](C3)N4S(=O)(=O)C[C@H]3CCCNC3)c(Cl)cc2N1 [compound 598, 6-chloro-2-oxo-N-((1R,3S,5S)-8-((((S)-piperidin-3-yl)methyl)sulfonyl)-8-azabicyclo[3.2.1]octan-3-yl)indoline-5-carboxamide]	4.12	1270	–
–	O=C1Cc2cc(C(=O)N[C@H]3C[C@H]4CC[C@@H](C3)N4S(=O)(=O)CCN3CCCC3)ccc2N1 [compound 615, 2-oxo-N-((1R,3r,5S)-8-((2-(pyrrolidin-1-yl)ethyl)sulfonyl)-8-azabicyclo[3.2.1]octan-3-yl)indoline-5-carboxamide]	–	761	49.7
–	N[C@H]1CC[C@H](S(=O)(=O)N2[C@@H]3CC[C@H]2C[C@@H](NC(=O)c2ccc4c(c2)OC(F)(F)O4)C3)CC1 [compound 623, N-((1R,3R,5S)-8-(((1r,4R)-4-aminocyclohexyl)sulfonyl)-8-azabicyclo[3.2.1]octan-3-yl)-2,2-difluorobenzo[d][1,3]dioxole-5-carboxamide]	136	896	–
–	CN1CCC(CS(=O)(=O)N2[C@@H]3CC[C@H]2C[C@@H](NC(=O)c2ccc4c(c2)CC(=O)N4)C3)CC1 [compound 577, N-((1R,3r,5S)-8-(((1-methylpiperidin-4-yl)methyl)sulfonyl)-8-azabicyclo[3.2.1]octan-3-yl)-2-oxoindoline-5-carboxamide]	–	481	0.67
–	NC1CCN(S(=O)(=O)N2[C@@H]3CC[C@H]2C[C@@H](NC(=O)c2ccc4c(c2)CC(=O)N4)C3)CC1 [compound 578, N-((1R,3r,5S)-8-((4-aminopiperidin-1-yl)sulfonyl)-8-azabicyclo[3.2.1]octan-3-yl)-2-oxoindoline-5-carboxamide]	–	854	0.68
> 40000	CC(NC(=O)c1cc2c(cc1Cl)NC(=O)C2)C1CCN(C(=O)[C@H](C)N)CC1 (stereo partly drawn) [Cpd. No. 490, N-(1-(1-((S)-2-aminopropanoyl)piperidin-4-yl)ethyl)-6-chloro-2-oxoindoline-5-carboxamide]	–	–	430
–	CCc1cc(C(=O)N[C@H]2CCN(S(=O)(=O)N3CCC(N)CC3)[C@@H](C)C2)ns1 [compound 605, N-((2S,4S)-1-(4-aminopiperidin-1-ylsulfonyl)-2-methylpiperidin-4-yl)-5-ethyl-1,2-thiazole-3-carboxamide Hydrochloride]	–	201	15.4
–	C[C@H]1Oc2ccc(C(=O)N[C@H]3C[C@H]4CC[C@@H](C3)N4S(=O)(=O)CC3CCNCC3)cc2NC1=O [Cpd. No. 625, (2R)-2-methyl-3-oxo-N-[(1R,3r,5S)-8-[(piperidin-4-ylmethane)sulfonyl]-8-azabicyclo[3.2.1]octan-3-yl]-3,4-dihydro-2H-1,4-benzoxazine-6-carboxamide Hydrochloride]	185	≥ 10000	–
–	C[C@H]1CC(NC(=O)c2ccc3c(c2)CC(=O)N3)CCN1S(=O)(=O)c1ccc(C(C)(C)N)cc1 (stereo partly drawn) [compound 584, N-((2S)-1-((4-(2-aminopropan-2-yl)phenyl)sulfonyl)-2-methylpiperidin-4-yl)-2-oxoindoline-5-carboxamide]	1.47	653	–
> 40000	C[C@@H](N)CC(=O)N[C@H]1CC[C@H](NC(=O)c2ccc3c(c2)CC(=O)N3)CC1 [compound 453, N-((1r,4r)-4-((R)-3-aminobutanamido)cyclohexyl)-2-oxoindoline-5-carboxamide]	–	–	260
–	C[C@H]1CC(NC(=O)c2cc3c(cc2Cl)NC(=O)C3)CCN1C(=O)[C@H]1CC[C@H](N)CC1 (stereo partly drawn) [compound 640, N-((2S)-1-((1r,4S)-4-aminocyclohexane-1-carbonyl)-2-methylpiperidin-4-yl)-6-chloro-2-oxoindoline-5-carboxamide]	–	≥ 10000	–
